Laboratory results reported in ChEMBL document CHEMBL3991601, “The target landscape of clinical kinase drugs” (Science, 2017).
Where a name gives a salt, the structure may show the parent alone. Activity calls are given as the source filed them. For most assays here, no stated cut-off is given here; in the data, actives have a measured Kd and inactives only a lower limit.

How the values were obtained:
[1] = biological target: Deoxycytidine kinase (Homo sapiens, UniProt P27707)
[2] = biological target: Inosine-5'-monophosphate dehydrogenase 2 (Homo sapiens, UniProt P12268)
[3] = biological target: T1, Ferrochelatase, mitochondrial (Homo sapiens, UniProt P22830)
T1 sequence (P22830 whole entry): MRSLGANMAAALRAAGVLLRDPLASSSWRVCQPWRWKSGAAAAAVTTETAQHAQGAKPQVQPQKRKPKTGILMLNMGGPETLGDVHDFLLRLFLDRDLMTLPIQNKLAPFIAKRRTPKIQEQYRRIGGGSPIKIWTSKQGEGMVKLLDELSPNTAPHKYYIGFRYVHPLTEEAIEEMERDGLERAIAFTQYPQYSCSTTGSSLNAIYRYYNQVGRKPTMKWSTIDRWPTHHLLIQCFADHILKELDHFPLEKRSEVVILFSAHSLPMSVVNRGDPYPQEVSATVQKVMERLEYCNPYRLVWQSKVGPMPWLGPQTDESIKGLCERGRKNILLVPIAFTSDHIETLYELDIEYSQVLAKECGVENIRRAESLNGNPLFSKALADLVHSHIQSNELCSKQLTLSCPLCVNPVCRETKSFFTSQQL

[4] = biological target: T2, AarF domain-containing protein kinase 1 (Homo sapiens, UniProt Q86TW2)
T2 sequence (Q86TW2 whole entry): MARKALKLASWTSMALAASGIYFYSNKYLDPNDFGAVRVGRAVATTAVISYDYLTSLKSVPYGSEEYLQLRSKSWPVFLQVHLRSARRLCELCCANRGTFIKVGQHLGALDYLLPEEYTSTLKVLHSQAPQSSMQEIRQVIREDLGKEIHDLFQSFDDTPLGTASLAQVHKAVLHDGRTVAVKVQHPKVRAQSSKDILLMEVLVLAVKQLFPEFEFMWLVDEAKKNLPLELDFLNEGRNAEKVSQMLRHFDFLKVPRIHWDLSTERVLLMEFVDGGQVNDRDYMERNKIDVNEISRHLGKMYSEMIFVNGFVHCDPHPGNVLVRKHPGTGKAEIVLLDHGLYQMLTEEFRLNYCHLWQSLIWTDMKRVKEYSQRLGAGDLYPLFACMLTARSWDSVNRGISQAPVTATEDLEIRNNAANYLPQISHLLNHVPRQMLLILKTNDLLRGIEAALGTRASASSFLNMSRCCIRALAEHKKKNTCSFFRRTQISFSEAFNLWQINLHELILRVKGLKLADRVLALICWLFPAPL

[5] = biological target: Tyrosine-protein kinase CSK (Homo sapiens, UniProt P41240)
[6] = biological target: Aurora kinase B (Homo sapiens, UniProt Q96GD4)
[7] = biological target: Proto-oncogene tyrosine-protein kinase Src (Homo sapiens, UniProt P12931)
[8] = biological target: T3, Dual specificity mitogen-activated protein kinase kinase 6 (Homo sapiens, UniProt P52564)
T3 sequence (P52564 whole entry): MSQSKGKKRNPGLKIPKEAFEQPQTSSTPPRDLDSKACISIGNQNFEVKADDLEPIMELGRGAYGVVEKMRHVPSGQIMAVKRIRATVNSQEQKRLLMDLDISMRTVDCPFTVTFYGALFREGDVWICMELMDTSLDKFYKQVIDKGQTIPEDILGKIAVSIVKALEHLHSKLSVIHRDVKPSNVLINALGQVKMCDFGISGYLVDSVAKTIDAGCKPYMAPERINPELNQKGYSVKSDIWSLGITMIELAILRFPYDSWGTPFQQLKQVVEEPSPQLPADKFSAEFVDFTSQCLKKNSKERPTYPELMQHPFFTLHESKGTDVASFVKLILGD

[9] = biological target: Tyrosine-protein kinase Fyn (Homo sapiens, UniProt P06241)
[10] = biological target: T4, Mitogen-activated protein kinase kinase kinase 5 (Homo sapiens, UniProt Q99683)
T4 sequence (Q99683 whole entry): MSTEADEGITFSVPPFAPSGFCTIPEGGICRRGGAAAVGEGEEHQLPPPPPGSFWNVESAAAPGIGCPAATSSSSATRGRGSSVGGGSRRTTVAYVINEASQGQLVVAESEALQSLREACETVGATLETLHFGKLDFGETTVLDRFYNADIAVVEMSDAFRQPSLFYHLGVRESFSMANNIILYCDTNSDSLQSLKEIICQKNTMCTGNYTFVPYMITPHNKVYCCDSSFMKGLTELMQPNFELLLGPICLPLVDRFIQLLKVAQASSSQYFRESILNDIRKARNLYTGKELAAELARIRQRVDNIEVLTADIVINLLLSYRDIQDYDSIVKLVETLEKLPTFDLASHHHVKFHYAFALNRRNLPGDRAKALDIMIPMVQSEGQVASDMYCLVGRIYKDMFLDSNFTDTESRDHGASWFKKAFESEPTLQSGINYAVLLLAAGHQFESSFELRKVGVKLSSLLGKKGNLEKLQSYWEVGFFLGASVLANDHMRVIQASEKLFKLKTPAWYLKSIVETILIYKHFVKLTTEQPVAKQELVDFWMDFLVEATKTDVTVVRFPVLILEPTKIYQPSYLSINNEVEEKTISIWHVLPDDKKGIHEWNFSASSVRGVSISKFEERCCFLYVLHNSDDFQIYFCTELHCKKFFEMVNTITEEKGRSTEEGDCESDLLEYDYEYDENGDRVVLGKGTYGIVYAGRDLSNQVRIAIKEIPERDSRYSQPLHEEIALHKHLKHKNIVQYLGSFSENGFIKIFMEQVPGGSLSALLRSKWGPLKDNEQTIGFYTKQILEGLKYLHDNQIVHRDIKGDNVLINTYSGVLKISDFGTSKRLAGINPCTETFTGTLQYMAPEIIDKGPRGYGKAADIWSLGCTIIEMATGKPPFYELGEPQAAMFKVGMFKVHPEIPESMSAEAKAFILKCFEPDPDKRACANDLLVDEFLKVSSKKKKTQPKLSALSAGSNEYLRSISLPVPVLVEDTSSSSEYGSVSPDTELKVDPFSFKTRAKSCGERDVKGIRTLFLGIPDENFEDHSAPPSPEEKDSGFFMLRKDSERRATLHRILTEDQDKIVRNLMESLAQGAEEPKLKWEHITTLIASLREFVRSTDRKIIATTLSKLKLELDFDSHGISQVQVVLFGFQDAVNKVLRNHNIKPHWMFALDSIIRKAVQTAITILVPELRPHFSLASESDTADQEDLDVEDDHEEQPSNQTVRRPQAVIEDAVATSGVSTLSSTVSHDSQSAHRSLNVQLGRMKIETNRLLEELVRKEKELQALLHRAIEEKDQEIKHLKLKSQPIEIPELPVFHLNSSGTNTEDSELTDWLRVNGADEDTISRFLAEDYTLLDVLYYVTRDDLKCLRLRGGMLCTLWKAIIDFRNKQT

Proto-oncogene tyrosine-protein kinase Src, sequence (P12931 2-536 limits assumed): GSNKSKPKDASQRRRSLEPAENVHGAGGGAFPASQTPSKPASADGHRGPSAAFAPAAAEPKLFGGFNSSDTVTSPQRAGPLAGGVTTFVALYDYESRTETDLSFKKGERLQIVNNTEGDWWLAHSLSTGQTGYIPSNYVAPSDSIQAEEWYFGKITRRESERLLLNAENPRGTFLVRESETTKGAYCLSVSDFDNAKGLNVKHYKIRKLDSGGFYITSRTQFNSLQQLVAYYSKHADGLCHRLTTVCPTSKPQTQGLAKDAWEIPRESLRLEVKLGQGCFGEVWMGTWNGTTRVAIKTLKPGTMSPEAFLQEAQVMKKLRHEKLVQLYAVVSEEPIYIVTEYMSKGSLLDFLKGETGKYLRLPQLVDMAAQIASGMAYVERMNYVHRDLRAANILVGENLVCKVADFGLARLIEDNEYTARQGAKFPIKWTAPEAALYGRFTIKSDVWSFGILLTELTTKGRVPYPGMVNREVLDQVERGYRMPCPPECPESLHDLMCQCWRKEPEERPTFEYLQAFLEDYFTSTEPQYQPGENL
Tyrosine-protein kinase Fyn, sequence (P06241 whole entry): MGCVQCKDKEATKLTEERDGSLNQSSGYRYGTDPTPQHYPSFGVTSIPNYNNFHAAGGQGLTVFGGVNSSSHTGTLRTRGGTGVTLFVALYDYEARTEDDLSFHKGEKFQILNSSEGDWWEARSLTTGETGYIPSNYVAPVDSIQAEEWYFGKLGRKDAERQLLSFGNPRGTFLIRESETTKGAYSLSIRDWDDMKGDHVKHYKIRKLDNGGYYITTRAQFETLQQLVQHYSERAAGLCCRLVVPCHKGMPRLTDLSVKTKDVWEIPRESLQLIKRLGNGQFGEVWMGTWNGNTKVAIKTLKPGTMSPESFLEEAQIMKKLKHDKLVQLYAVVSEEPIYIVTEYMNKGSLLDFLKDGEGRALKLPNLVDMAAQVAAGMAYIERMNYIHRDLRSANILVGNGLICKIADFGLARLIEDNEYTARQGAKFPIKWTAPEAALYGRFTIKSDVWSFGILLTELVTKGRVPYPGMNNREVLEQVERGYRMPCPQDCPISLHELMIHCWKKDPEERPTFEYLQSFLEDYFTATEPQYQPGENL
Deoxycytidine kinase, sequence (P27707 whole entry): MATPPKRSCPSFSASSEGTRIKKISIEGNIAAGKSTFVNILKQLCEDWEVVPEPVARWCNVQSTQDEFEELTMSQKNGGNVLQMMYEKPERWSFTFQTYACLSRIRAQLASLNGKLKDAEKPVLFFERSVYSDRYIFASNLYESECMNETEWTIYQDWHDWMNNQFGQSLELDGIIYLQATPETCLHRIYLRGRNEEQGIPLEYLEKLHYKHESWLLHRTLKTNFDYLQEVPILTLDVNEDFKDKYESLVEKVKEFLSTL
Aurora kinase B, sequence (Q96GD4 whole entry): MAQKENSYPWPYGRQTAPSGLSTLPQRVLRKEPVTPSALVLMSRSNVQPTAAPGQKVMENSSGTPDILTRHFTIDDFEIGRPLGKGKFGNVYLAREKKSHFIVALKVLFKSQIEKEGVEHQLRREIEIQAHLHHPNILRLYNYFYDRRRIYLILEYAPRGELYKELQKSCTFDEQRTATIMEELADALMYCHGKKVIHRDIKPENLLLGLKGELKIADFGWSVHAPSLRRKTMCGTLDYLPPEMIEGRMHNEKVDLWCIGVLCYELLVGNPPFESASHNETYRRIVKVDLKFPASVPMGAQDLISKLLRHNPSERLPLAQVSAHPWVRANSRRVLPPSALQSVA

Structure (SMILES)	Kd [1]	Kd [2]	Kd [3]	Kd [4]	Kd [5]	Kd [8]	Kd [9]	Kd [6]	Kd [7]	Kd [10]
Cn1cc(C2=C(c3cn(C4CCN(Cc5ccccn5)CC4)c4ccccc34)C(=O)NC2=O)c2ccccc21 [ENZASTAURIN]	> 30 µM (inactive)	> 30 µM (inactive)	> 30 µM (inactive)	> 30 µM (inactive)	–	–	–	–	–	–
CC(=O)c1cnc2ccc(-c3cc(Cl)c(O)c(Cl)c3)nc2c1N[C@H]1CC[C@H](CN(C)C)CC1	> 30 µM (inactive)	–	1.09 µM (active)	> 30 µM (inactive)	> 30 µM (inactive)	4.56 µM (active)	0.125 µM (active)	0.126 µM (active)	> 30 µM (inactive)	0.878 µM (active)
CC(C)(C)c1nc(-c2cccc(NS(=O)(=O)c3c(F)cccc3F)c2F)c(-c2ccnc(N)n2)s1 [DABRAFENIB]	> 30 µM (inactive)	> 30 µM (inactive)	> 30 µM (inactive)	> 30 µM (inactive)	0.851 µM (active)	> 30 µM (inactive)	–	> 30 µM (inactive)	> 30 µM (inactive)	–
COc1cc(Nc2ncc3c(n2)-c2ccc(Cl)cc2C(c2c(F)cccc2OC)=NC3)ccc1C(=O)O [ALISERTIB]	> 30 µM (inactive)	> 30 µM (inactive)	> 30 µM (inactive)	> 30 µM (inactive)	> 30 µM (inactive)	> 30 µM (inactive)	–	–	> 30 µM (inactive)	> 30 µM (inactive)
N#CC[C@H](C1CCCC1)n1cc(-c2ncnc3[nH]ccc23)cn1 [RUXOLITINIB]	> 30 µM (inactive)	> 30 µM (inactive)	> 30 µM (inactive)	> 30 µM (inactive)	–	–	–	–	–	–
CCS(=O)(=O)N1CCN(c2ccc(Nc3ncc(C(N)=O)c(NC4CC4)n3)cc2)CC1 [Cerdulatinib Hydrochloride]	> 30 µM (inactive)	> 30 µM (inactive)	> 30 µM (inactive)	> 30 µM (inactive)	> 30 µM (inactive)	> 30 µM (inactive)	> 30 µM (inactive)	3.79 µM (active)	> 30 µM (inactive)	–
Cc1[nH]c(/C=C2\C(=O)Nc3ccccc32)c(C)c1CCC(=O)O [ORANTINIB]	> 30 µM (inactive)	> 30 µM (inactive)	> 30 µM (inactive)	> 30 µM (inactive)	> 30 µM (inactive)	> 30 µM (inactive)	–	–	–	> 30 µM (inactive)
CNC(=O)c1ccccc1Sc1ccc2c(/C=C/c3ccccn3)n[nH]c2c1 [AXITINIB]	> 30 µM (inactive)	> 30 µM (inactive)	6.84 µM (active)	> 30 µM (inactive)	–	–	–	–	–	–
CN1CCN(CCOc2cc(OC3CCOCC3)c3c(Nc4c(Cl)ccc5c4OCO5)ncnc3c2)CC1 [SARACATINIB]	> 30 µM (inactive)	> 30 µM (inactive)	> 30 µM (inactive)	> 30 µM (inactive)	39.6 µM (active)	> 30 µM (inactive)	–	> 30 µM (inactive)	–	> 30 µM (inactive)
CNC(=O)c1cc(Oc2ccc(NC(=O)Nc3cc(C(C)(C)C)nn3-c3ccc4ncccc4c3)c(F)c2)ccn1 [REBASTINIB]	> 30 µM (inactive)	> 30 µM (inactive)	> 30 µM (inactive)	> 30 µM (inactive)	0.41 µM (active)	> 30 µM (inactive)	–	> 30 µM (inactive)	–	> 30 µM (inactive)
CCOc1cc2ncc(C#N)c(Nc3ccc(F)c(Cl)c3)c2cc1NC(=O)/C=C/CN(C)C [PELITINIB]	> 30 µM (inactive)	> 30 µM (inactive)	10.5 µM (active)	> 30 µM (inactive)	> 30 µM (inactive)	> 30 µM (inactive)	–	> 30 µM (inactive)	> 30 µM (inactive)	> 30 µM (inactive)
O=C(Nc1c[nH]nc1-c1nc2cc(CN3CCOCC3)ccc2[nH]1)NC1CC1 [AT-9283]	> 30 µM (inactive)	> 30 µM (inactive)	> 30 µM (inactive)	0.559 µM (active)	–	3.54 µM (active)	–	0.017 µM (active)	–	–

Continued, in another order:

Kd [1]	Kd [2]	Kd [3]	Kd [4]	Kd [5]	Kd [8]	Kd [9]	Structure (SMILES)	Kd [6]	Kd [7]	Kd [10]
2.16 µM (active)	> 30 µM (inactive)	2.41 µM (active)	22.7 µM (active)	> 30 µM (inactive)	> 30 µM (inactive)	> 30 µM (inactive)	CCn1cc(-c2ccnc3[nH]c(-c4cccc(CN(C)C)c4)cc23)c(-c2ccc(NC(=O)N(C)C)cc2)n1 [GSK-1070916]	0.371 µM (active)	–	> 30 µM (inactive)
> 30 µM (inactive)	–	> 30 µM (inactive)	> 30 µM (inactive)	> 30 µM (inactive)	> 30 µM (inactive)	–	CC(=O)NCC(=O)N1[C@@H]2CC[C@H]1c1ccc(Nc3ncc(C(F)(F)F)c(NC4CCC4)n3)cc12 [PF-03814735]	0.02 µM (active)	–	–
> 30 µM (inactive)	> 30 µM (inactive)	> 30 µM (inactive)	> 30 µM (inactive)	–	–	–	C[C@@H](Oc1cc(-n2cnc3ccc(CN4CCN(C)CC4)cc32)sc1C(N)=O)c1ccccc1C(F)(F)F [GSK-461364]	–	–	–
> 30 µM (inactive)	> 30 µM (inactive)	> 30 µM (inactive)	> 30 µM (inactive)	–	–	–	O=C(NOCCO)c1cc(CN2OCCCC2=O)c(F)c(F)c1Nc1ccc(I)cc1F [RO-4987655]	–	–	–
> 30 µM (inactive)	> 30 µM (inactive)	> 30 µM (inactive)	0.281 µM (active)	> 30 µM (inactive)	> 30 µM (inactive)	–	NC(=O)c1c(OCc2c(F)cc(Br)cc2F)nsc1NC(=O)NCCCCN1CCCC1 [OSI-632]	–	–	> 30 µM (inactive)
